Measurements reported in ChEMBL document CHEMBL3875164, “Pyrazole-based potent inhibitors of GGT1: Synthesis, biological evaluation, and molecular docking studies” (Eur J Med Chem, 2016).
pIC50: −log10 of the molar value.

Columns and labels:
[1] = Cytotoxicity against human MDA-MB-231 cells assessed as cell growth inhibition after 48 hrs by MTT assay method; type: functional, cell-based; details: MDA-MB-231, 48 h
[2] = Inhibition of recombinant FT (unknown origin) using FPP as substrate preincubated for 5 mins followed by protein addition measured over 20 mins by fluorescence assay; parameters: species or system Homo sapiens

| pIC50 [2] | Compound | pIC50 [1] |
| --- | --- | --- |
|  | CSCCc1c(-c2cccnc2)nn(-c2ccc(Cl)c(Cl)c2)c1OCCCC(=O)N[C@@H](Cc1ccccc1)C(N)=O | 4.64 |
| 5.96 | COC(=O)[C@H](CCSC)NC(=O)c1ccc(NC[C@@H](N)CS)cc1-c1ccccc1 |  |
| < 4.00 | CSCCc1c(-c2cccnc2)nn(-c2ccc(Cl)c(Cl)c2)c1OCCCNC(=O)[C@H](Cc1ccccc1)NS(C)(=O)=O | < 4.30 |
| < 4.00 | CSCCc1c(-c2cccnc2)nn(-c2ccc(Cl)c(Cl)c2)c1OCCCNC(=O)[C@H](Cc1ccc(F)cc1)NS(C)(=O)=O | < 4.30 |
| < 4.00 | COc1ccc(C[C@H](NS(C)(=O)=O)C(=O)NCCCOc2c(CCSC)c(-c3cccnc3)nn2-c2ccc(Cl)c(Cl)c2)cc1 | < 4.30 |
| < 4.00 | CSCCc1c(-c2cccnc2)nn(-c2ccc(Cl)c(Cl)c2)c1OCCCNC(=O)[C@H](Cc1cccnc1)NC(C)=O | 4.28 |
| < 4.00 | CSCCc1c(-c2cccnc2)nn(-c2ccc(Cl)c(Cl)c2)c1OCCCNC(=O)[C@H](Cc1ccncc1)NC(C)=O | 4.46 |
| < 4.00 | CSCCc1c(-c2cccnc2)nn(-c2ccc(Cl)c(Cl)c2)c1OCCCNC(=O)[C@H](Cc1cccnc1)NS(C)(=O)=O | < 4.30 |
| < 4.00 | COc1ccc(C[C@H](NC(=O)OC(C)(C)C)C(=O)NCCCOc2c(CCSC)c(-c3cccnc3)nn2-c2ccc(Cl)c(Cl)c2)cc1 | < 4.30 |
| < 4.00 | CSCCc1c(-c2cccnc2)nn(-c2ccc(Cl)c(Cl)c2)c1OCCCNC(=O)[C@H](Cc1ccccc1)NC(C)=O | 4.81 |
| < 4.00 | CSCCc1c(-c2cccnc2)nn(-c2ccc(Cl)c(Cl)c2)c1OCCCNC(=O)[C@H](Cc1ccncc1)NS(C)(=O)=O | 4.58 |
| < 4.00 | CSCCc1c(-c2cccnc2)nn(-c2ccc(Cl)c(Cl)c2)c1OCCCNC(=O)[C@H](Cc1ccc(F)cc1)NC(C)=O | 4.88 |
| < 4.00 | COc1ccc(C[C@H](NC(=O)CCCOc2c(CCSC)c(-c3cccnc3)nn2-c2ccc(Cl)c(Cl)c2)C(N)=O)cc1 | 4.48 |
| < 4.00 | CSCCc1c(-c2cccnc2)nn(-c2ccc(Cl)c(Cl)c2)c1OCCCC(=O)N[C@@H](Cc1ccc(F)cc1)C(N)=O | 5.12 |
| < 4.00 | CSCCc1c(-c2cccnc2)nn(-c2ccc(Cl)c(Cl)c2)c1OCCCC(=O)N[C@@H](Cc1cccnc1)C(N)=O | 4.53 |
| < 4.00 | COc1ccc(C[C@H](NC(C)=O)C(=O)NCCCOc2c(CCSC)c(-c3cccnc3)nn2-c2ccc(Cl)c(Cl)c2)cc1 | 4.83 |
| < 4.00 | CSCCc1c(-c2cccnc2)nn(-c2ccc(Cl)c(Cl)c2)c1OCCCC(=O)N[C@@H](Cc1ccncc1)C(N)=O | < 4.30 |
